Experimental data taken from patent US4062959A, “N-methyl-imidazole derivatives for treating mycotic infections” (Bayer Aktiengesellschaft, priority 1970, dated 1977).
In brackets after ≈: the same amount, converted by molar mass.

Tests used:
Assay in all cases: Anti-mycotic action in vitro (MIC, serial dilution test)
Format in all cases: cell-based
Penicillium commune = conditions: 28° C, 24 to 96 hours, dilution series 100-40-20-10-4-1, read-out: Minimal inhibitory concentration (MIC), Penicillium commune
Experimental: (§1) The Table summarises the anti-mycotic actions in vitro of several preparations towards several species of fungi:
(§2) The MIC determination was carried out in a serial dilution test, in the dilution series 100-40-20-10-4-1 γ/ml of substrate. The following were used as nutrient substrates:
(§3) The incubation temperature was 28° C, and the incubation time was 24 to 96 hours.

Aspergillus niger = conditions: 28° C, 24 to 96 hours, dilution series 100-40-20-10-4-1, read-out: Minimal inhibitory concentration (MIC), Aspergillus niger
Experimental: as §1, §2, §3

[1] = tested on: Trichophyton mentagrophytes; conditions: 28° C, 24 to 96 hours, Sabouraud's test medium (Dermatophytes), dilution series 100-40-20-10-4-1, read-out: Minimal inhibitory concentration (MIC), Trichophyton mentagrophytes
Experimental: as §1, §2
(§4) a. for Dermatophytes: Sabouraud's test medium
as §3

Microsporon felineum = conditions: 28° C, 24 to 96 hours; Sabouraud's test medium (Dermatophytes); dilution series 100-40-20-10-4-1; read-out: Minimal inhibitory concentration (MIC), Microsporon felineum
Experimental: as §1, §2, §4, §3

Candida albicans = conditions: 28° C, 24 to 96 hours, meat water-glucose-bouillon (yeasts), dilution series 100-40-20-10-4-1, read-out: Minimal inhibitory concentration (MIC), Candida albicans
Experimental: as §1, §2
b. for yeasts: meat water -- glucose -- bouillon.
as §3

Row | MIC (Penicillium commune) [µg/mL] | MIC (Aspergillus niger) [µg/mL] | MIC [1] [µg/mL] | MIC (Microsporon felineum) [µg/mL] | MIC (Candida albicans) [µg/mL] | SMILES
1 | 40 (≈ 128 µM) | 10 (≈ 32 µM) | 4 (≈ 12.8 µM) | 10 (≈ 32 µM) | 40 (≈ 128 µM) | c1ccc(C(c2ccccc2)(c2cnccn2)n2ccnc2)cc1 [Example 2, Diphenyl-pyrazyl-imidazol-1-yl-methane]
2 | 100 (≈ 320 µM) | 10 (≈ 32 µM) | 4 (≈ 12.8 µM) | 40 (≈ 128 µM) | 40 (≈ 128 µM) | c1ccc(C(c2ccccc2)(c2cncnc2)n2ccnc2)cc1 [Example 1, Diphenyl-pyrimid-5-yl-imidazol-1-yl-methane]
3 | 4 (≈ 12.1 µM) | 4 (≈ 12.1 µM) | < 1 | 4 (≈ 12.1 µM) | 4 (≈ 12.1 µM) | Fc1ccc(C(c2ccccc2)(c2cnccn2)n2ccnc2)cc1 (stereo not drawn) [Example 3, 4-Fluorophenyl-phenyl-pyrazyl-imidazol-1-yl-methane]
